Entries after “also recorded” stand apart in the source; their conditions may differ. Read-outs that look alike come from different tables or passages of the source.

The test system of one assay is Sirt1 protein. The assay is described as follows: Expression level of Sirt1 protein in skin tissue (western blot), cyclophosphamide alopecia model. The format is in vivo, mice. The conditions noted are these: cyclophosphamide plus dunnione; day 18. How it is done:
In the cyclophosphamide-induced alopecia mouse model of Example 2, expression level of Sirt1 protein and acetylation reaction of the target proteins thereof, NF-κB p65 and p53, were identified on the skin tissue obtained on day 18 after hair removal.
Specifically, 10 mg of the skin tissue obtained from the animal model prepared by the method in Example 2 was homogenized by addition of a lysis solution (RIPA lysis buffer). Then, centrifugation was performed at 14,000 rpm for 10 minutes. The protein concentration in the supernatant was quantified with a bovine serum albumin (BSA) standard solution. The skin tissue protein was used in an amount of 40 μg per test solution. First, the homogenized skin tissue was mixed with a sample solution (Bio-Rad, 161-0747) and inactivated at a temperature of 95° C. for 5 minutes. Thereafter, the protein was separated by a sodium dodecyl sulfate-polyacrylamide gel electrophoresis (SDS-PAGE) method, and then transferred to a nitrocellulose membrane. Treatment with anti-Sirt1 antibody (Abcam), anti-acetyl NF-κB p65 antibody and anti-acetyl p53 antibody (Cell Signaling Technologies), and anti-β-actin antibody (Santa Cruz Biotechnology) as primary antibodies were performed, and reaction was allowed to proceed. […]
On the technique in general: In western blotting, separated proteins are transferred to a membrane and probed.

The subject of assay [1] is C57BL/6 mice having alopecia caused by cyclophosphamide. How it is done:
The day, on which the mice were hair-removed in Example 1, was set as day 0, and the animals were divided into the following groups: normal group (Control, 4 animals) in which only PBS is intraperitoneally injected on day 9; cyclophosphamide group (CYP, 6 animals) in which cyclophosphamide (150 mg/kg) is intraperitoneally injected on day 9; combination-treated group (CYP+Dunnione, 6 animals) in which dunnione is orally administered on a daily basis starting from 3 days prior to treatment with cyclophosphamide; and dunnione alone-treated group (Dunnione, 4 animals) in which only dunnione (20 mg/kg) is administered (FIG. 1).
The day, on which the mice were hair-removed in Example 1, was set as day 0, and the mice in each of the experimental groups described in Example 2 were sacrificed on day 18. Subsequently, the mouse dorsal skin was dissected parallel or perpendicular to the vertebral line, and removed. The removed skin was fixed with a Bouin's solution for 12 hours, subjected to dehydration, and embedded in paraffin. Then, the resulting product was prepared into 5-μm sections. The prepared sections were subjected to hematoxylin and eosin (H&E) staining, and histological changes in the skin in each experimental group were observed.

In assay [2] the test system is C57BL/6 mice having alopecia caused by docetaxel, adriamycin, and cyclophosphamide. The assay is described as follows: Visual observation of skin in animal model having alopecia caused by 6×TAC. The format is in vivo. The text has this:
In 9-week-old C57BL/6 mice, the hair on the dorsal skin area was first removed with an animal hair clipper, and then a depilatory (Niclean cream, manufactured by Ildong Pharmaceutical Co., Ltd.) was applied to the dorsal skin to completely remove the hair.
Docetaxel (DTX), adriamycin (ADR), and cyclophosphamide (CYP) were used as anticancer drugs, and combined administration of the three anticancer drugs was designated as TAC. In addition, information was obtained from the National Comprehensive Cancer Network (NCCN) for the single concentration (designated as 1× concentration) of each anticancer drug which is actually clinically applied to cancer patients. As described below, for the experimental group to be treated with anti-cancer drugs, the mice were treated with docetaxel, adriamycin, and cyclophosphamide at 6× concentration (11.58 mg/kg, 9.24 mg/kg, and 76.8 mg/kg, respectively). When treatment with the anticancer drugs is performed, the anticancer drugs were injected intraperitoneally at time intervals of 1 hour so that each of the anticancer drugs can be sufficiently absorbed.

The test system of a further assay is NQO1 knockout mice. How it is done:
The day, on which the NQO1 knockout mice were hair-removed according to Example 1, was set as day 0, and the animals were divided into the following experimental groups and used for experiments: normal group (Control, 4 animals) in which only PBS is intraperitoneally injected on day 9; cyclophosphamide group (CYP, 6 animals) in which cyclophosphamide (150 mg/kg) is intraperitoneally injected on day 9; combination-treated group (CYP+Dunnione, 6 animals) in which dunnione is orally administered on a daily basis starting from 3 days prior to treatment with cyclophosphamide; and dunnione alone-treated group (Dunnione, 4 animals) in which only dunnione (20 mg/kg) is administered (FIG. 1).

In assay [3] the test system is C57BL/6 mice having alopecia caused by cyclophosphamide. Kind of assay: Visual observation of skin in animal model having alopecia caused by cyclophosphamide. The format is in vivo. The text has this: In 9-week-old C57BL/6 mice, the hair on the dorsal skin area was first removed with an animal hair clipper, and then a depilatory ([…] cream, manufactured by Ildong Pharmaceutical Co., Ltd.) was applied to the dorsal skin to completely remove the hair.

The next assay has as its system Sirt1. The assay is described as follows: Sirt1 activity in skin tissue (fluorescent Sirt1 detection kit), cyclophosphamide alopecia model. The class given is in vivo, mice. The conditions noted are these: cyclophosphamide plus dunnione combination-treated group; day 18. Here is the method: In addition, the skin tissue obtained from the animal model prepared by the method in Example 2 was homogenized. The homogenized skin tissue was tested with the fluorescent Sirt1 detection kit (BML-AK555-0001) of Enzo Life Sciences International, Inc. according to the instruction manual, and then Sirt1 activity was analyzed. 40 μg of the homogenized skin tissue was mixed with a reaction solution (Fluor de Lys-Sirt1, NAD+, buffer solution (25 mM Tris-HCl (pH8.0), 137 mM NaCl, 2.7 mM […], 1 mM MgCl2, and 1 mg/mL BSA)), and reaction was allowed to proceed at a temperature of 37° C. for 1 hour. Then, additional reaction was allowed to proceed for 5 minutes under a condition in which a developer is added. In order to check the final Sirt1 activity, readings were measured for the reaction solution using the CytoFluor series 4000 fluorometer (PerSeptive Biosystems, Inc., USA) with the excitation wavelength set to 360 nm and the emission to 460 nm.

Assay [4] concerns C57BL/6 mice having alopecia caused by docetaxel, adriamycin, and cyclophosphamide. Kind of assay: Histological changes in skin (H&E) in animal model having alopecia caused by 6×TAC. The format is in vivo. The conditions noted are these: day 18.
Experimental: The day, on which the mice were hair-removed in Example 1, was set as day 0, and the mice in each of the experimental groups described in Example 4 were sacrificed on day 18. Subsequently, the mouse dorsal skin was dissected parallel or perpendicular to the vertebral line, and removed. The removed skin was fixed with a Bouin's solution for 12 hours, subjected to dehydration, and embedded in paraffin. Then, the resulting product was prepared into 5-μm sections. The prepared sections were subjected to hematoxylin and eosin (H&E) staining, and histological changes in the skin in each experimental group were observed.

Turning to `CC1OC2=C(C(=O)C(=O)c3ccccc32)C1(C)C` (centres unmarked) [dunnione, 2,3-dihydro-2,3,3-trimethyl-naphtho[1,2-b]furan-4,5-dione], the “expression level of Sirt1 protein in skin tissue” value in the assay on Sirt1 protein is given as “increases; also recorded: normalizes”. The “development of hair follicles and inner root sheaths (histology)” value in assay [1] (CYP+Dun combination-treated group, day 18 after hair removal) is “suppressed falling-off of hair follicles and inner root sheaths; also recorded: the hair follicles and the inner root sheaths have well developed overall”; in assay [4] (6×TAC+Dunnione combination-treated group), “the hair follicles and the inner root sheaths have well developed overall; also recorded: suppressed falling-off of hair follicles and inner root sheaths”. The “number of growing hairs (histology)” value is “increased number of hairs” in assay [1] (CYP+Dun compared with cyclophosphamide alone-treated group, day 18) and “increased number of hairs” in assay [4] (6×TAC+Dunnione compared with 6×TAC alone-treated group). Also, the “hair growth, visual observation of skin” value in assay [2] (6×TAC+Dunnione combination-treated group, day 18) was “hair grew overall so that the skin is full of hair and looks black”; in assay [2] (6×TAC+Dunnione: 6×TAC i.p. day 9, dunnione oral daily from 3 days prior, day 14), “began to grow more hair than the 6×TAC alone-treated group”; in assay [2] (dunnione alone, day 18), “hair grew overall so that the skin is full of hair and looks black”; in the assay on NQO1 knockout mice (CYP+Dun combination-treated group, until day 18), “hair hardly grew until day 18 after hair removal; also recorded: progression of hair loss to a level similar to the cyclophosphamide alone-treated group”; with NQO1 knockout mice (dunnione alone (20 mg/kg), day 18), “hair grew overall on day 18 so that the skin is full of hair and looks black”; in assay [3] (CYP+Dunnione combination-treated group, day 18 after hair removal) it was “hair grew overall so that the skin is full of hair and looks black”. Further, the “hair growth, visual observation of skin” value in assay [3] (CYP+Dunnione: cyclophosphamide 150 mg/kg i.p. day 9, dunnione oral daily from 3 days prior, day 14 after hair removal) is “began to grow more hair than the cyclophosphamide alone-treated group”; in assay [3] (dunnione alone (20 mg/kg), day 18 after hair removal), “hair grew overall so that the skin is full of hair and looks black”. The hair loss entry in assay [2] (TAC plus dunnione combination-treated group compared with TAC alone-treated group) and in assay [3] (cyclophosphamide plus dunnione combination-treated group compared with cyclophosphamide alone-treated group) was “inhibited hair loss” each time. Further, in the assay on NQO1 knockout mice (dunnione alone (20 mg/kg)), the “start of hair growth, visual observation of skin” value is reported as “hair began to grow starting from day 12 after hair removal”. In the assay on Sirt1, the “Sirt1 activity in skin tissue” value is listed as “maintained at a level similar to the normal group”.

The values are drawn from US11278514B2, “Composition compromising dunnione as effective ingredient for prevention or alleviation of hair loss” (NADIANBIO LTD., priority 2018, dated 2022).
